Data on 10 compounds can be found in patent US10294226B2, “Small molecule inhibitors of the JAK family of kinases” (Janssen Pharmaceutica NV, priority 2016, dated 2019).

Data set [1] is described as follows: In vivo intracolonic (i.c.) dosing, plasma and colon concentrations (Protocol 3). Set-up: species or system female C57BL/6 mice; key to Plasma Concentration After i.c. Dosing, Mean: ^: Mean was not calculated as the values for all three mice were below the lower limit of quantitation. To be noted: mice; for Plasma Concentration After i.c. Dosing, Mean: 5 mg/kg i.c. The text has this:
Plasma and colon concentration results were obtained by following Protocol 1 using venipuncture of dorsal metatarsal vein bleed for Compounds (B), (C), and Examples 6 and 11. Plasma and colon concentration results were obtained by following Protocol 2 using retro-orbital bleed for Compounds (A), and Examples 1, and 3-5 and Protocol 2 using venipuncture of the dorsal metatarsal vein for Examples 2, 7-10, and 12. Plasma and colon concentration results were obtained by following Protocol 3 for Examples 1, 3 and 4. These protocols are described below under the heading In vivo Studies.
Intracolonic (IC) dose group: Following anesthesia with isoflurane by inhalation, three non-fasted female C57BL/6 mice were administered the compound intracolonically through a small incision in the abdominal wall using a syringe and needle at a dose of 5 mg/kg as a solution in 20% HPβCD at a dose volume of 1 mL/kg. Blood samples were collected at 0.5, 2, and 4 h post dose via retro-orbital bleed. Blood samples were collected into tubes containing anticoagulant (Heparin-Na) and placed on wet ice. The plasma fraction was separated by centrifugation and frozen at −20° C. for up to 4 h and −80° C. after 4 h unless analyzed shortly after sample collection. Colon samples were collected at 4 h post dose. From 2 cm below the cecum, a 4-cm sample of the colon was dissected, cut open on the longitudinal axis, and the solid contents removed by flushing with 2 mL of saline. The colon was further washed by putting it in 5 mL of saline and shaken for 5 seconds. The colon sample was then patted dry, weighed, and homogenized as 1 part tissue (g) to 4 parts HPLC grade water (mL). Concentrations of the compound in plasma and colon homogenate were determined using a qualified liquid chromatography-triple quadrupole mass spectrometry (LC-MS/MS) method. This protocol was used to evaluate IC dosing of the following test compounds: Examples 1, 3, and 4.

The test system of data set [2] is GM-CSF pSTAT5 (JAK2/JAK2). Nature of the data set: GM-CSF pSTAT5 (JAK2/JAK2) cellular assay, AlphaLISA in PBMCs. The data set is classed as cell-based. The following applies: PBMC, GM-CSF 11 pg/mL. How it is done: The AlphaLISA assay (based on Alpha Technology from PerkinElmer) was performed by first plating freshly thawed PBMCs (Biological Specialty Corporation) in 384-well plates at 30,000 cells per 4 μL per well in HBSS containing 0.1% IgG-free, protease-free BSA (Jackson ImmunoResearch Cat. No. 001-000-161). The cells were then treated with 2 μL/well of compounds diluted in DMSO at half-log titrated concentrations, with a highest test concentration of 10 μM and 0.5% final DMSO concentration, for thirty minutes at 37° C. Next, the cells were stimulated with 2 μL/well of GM-CSF (R&D Systems Cat. No. 215-GM-050) at 11 pg/mL for fifteen minutes at 37° C. The cellular reactions were terminated by the addition of 2 μL/well of lysis buffer (PerkinElmer Cat. No. ALSU-PST5-A10K) followed by an incubation of five minutes at room temperature. 5 μL/well of acceptor mix (PerkinElmer Cat. No. ALSU-PST5-A10K) was added to the cells and incubated in the dark for one hour at room temperature. Then, 5 μL/well of donor mix (PerkinElmer Cat. No. ALSU-PST5-A10K) was added to the cells and incubated in the dark overnight at room temperature. Finally, the plates were read on a PerkinElmer EnVision for detection of the time-resolved fluorescence signal. The percentage of GM-CSF-dependent pSTAT5 inhibition was determined at the compound test concentrations; and for each compound, a dose curve was generated and the IC50 was calculated. Compound IC50 was calculated by nonlinear regression, sigmoidal dose response analysis of the half-log dilution titration curve of the compound concentration vs. Alpha signal. The term “Alpha” is defined in the IL-2 pSTAT5 (JAK1/JAK3) cellular assay description.
(Alpha assays give light when donor and acceptor beads are brought close together.)

The test system of data set [3] is IFNα pSTAT4 (JAK1/TYK2). Nature of the data set: IFNα pSTAT4 (JAK1/TYK2) cellular assay, AlphaLISA in PBMCs. Type of data set: cell-based. To be noted: PBMC, IFNα 4 ng/mL. How it is done: The AlphaLISA assay (based on Alpha Technology from PerkinElmer) was performed by first plating freshly thawed PBMCs (Biological Specialty Corporation) in 384-well plates at 100,000 cells per 6 μL per well in DMEM (Dulbecco's Modified Eagle Medium) containing 10% FBS (fetal bovine serum) and 1,000 I.U./mL penicillin and 1,000 μg/mL streptomycin. The cells were then treated with 2 μL/well of compounds diluted in DMSO at half-log titrated concentrations, with a highest test concentration of 10 μM and 0.5% final DMSO concentration, for thirty minutes at 37° C. Next, the cells were stimulated with 2 μL/well of IFNα (PBL Assay Science Cat. No. 11101-2) at 4 ng/mL for thirty minutes at 37° C. The cellular reactions were terminated by the addition of 2 μL/well of lysis buffer (PerkinElmer Cat. No. ALSU-PST4-A10K) followed by an incubation of five minutes at room temperature. 4 μL/well of acceptor mix (PerkinElmer Cat. No. ALSU-PST4-A10K) was added to the cells and incubated in the dark for one hour at room temperature. Then, 4 μL/well of donor mix (PerkinElmer Cat. No. ALSU-PST4-A10K) was added to the cells and incubated in the dark overnight at room temperature. Finally, the plates were read on a PerkinElmer EnVision for detection of the time-resolved fluorescence signal. The percentage of IFNα-dependent pSTAT4 inhibition was determined at the compound test concentrations; and for each compound, a dose curve was generated and the IC50 was calculated. Compound IC50 was calculated by nonlinear regression, sigmoidal dose response analysis of the half-log dilution titration curve of the compound concentration vs. Alpha signal. The term “Alpha” is defined in the immediately preceding cellular assay description.

A short description of data set [4]: physchem. The following applies: pH 6.5, fassif, thermodynamic from solid.
Data set [5] concerns P-gp (MDR1). Kind of data set: MDCK-MDR1 permeability assay. To be noted: dog, MDCK-MDR1, pH 7.4, with elacridar 2 μM, @ 5 μM, apical to basolateral, with P-gp inhibitor elacridar (2 μM); read-out: MDCK-MDR1 P^eapp(A-B). Type of data set: in vitro ADME.
Protocol: (§1) Permeability measurements were conducted according to the Cyprotex protocol using the MDCK-MDR1 cell line obtained from the NIH (Rockville, Md., USA). […] The cells in this assay form a cohesive sheet of a single cell layer filing the surface area of the culture dish, also known as a confluent monolayer, and on day four the test compound was added to the apical side of the membrane and the transport of the compound across the monolayer was monitored over a time period of 60 min.
(§2) Test compounds were dissolved in DMSO at a concentration of 10 mM. The dosing solutions were prepared by diluting test compound with assay buffer (Hanks Balanced Salt Solution), pH 7.4, at a final concentration of 5 μM. For assessment of apical to basolateral (“A-B”) permeability, buffer was removed from the apical compartment and replaced with test compound dosing solution with or without the permeability glycoprotein (“PgP”, “P-gP”, “Pgp” or “P-gp”) inhibitor elacridar (2 μM). For assessment of basolateral to apical (“B-A”) permeability, buffer was removed from the companion plate and replaced with test compound dosing solution. Incubations were carried out in duplicate at 37° C. in an atmosphere of 5% CO2 with a relative humidity of 95%. […] After incubation for 60 minutes, apical and basolateral samples were diluted and test compounds quantified by LC/MS/MS using an 8-point calibration in the range 0.0039 to 3 μM with appropriate dilution of the samples (receiver dilution factor=1; donor and C0 dilution factor=10). The permeability coefficient (Papp) for each compound was calculated from the following equation: Papp=(dQ/dt)/(C0×S), where dQ/dt is the rate of permeation of the drug across the cells, C0 is the donor compartment concentration at time zero, and S is the area of the cell monolayer.
(§3) The percent recovery was measured for all incubation conditions.
(§4) Papp(A-B) gives an indication of permeation extent across the cells in this assay, which is envisaged to model the transcellular transport across Pgp-expressing cells, such as Pgp-expressing gastrointestinal tract cells.
(§5) The integrity of each monolayer was monitored by examining the permeation of lucifer yellow by fluorimetric analysis.
The test system of data set [6] is MDCK-MDR1 cell line. Nature of the data set: MDCK-MDR1 permeability assay. The following applies: for MDCK-MDR1 Papp(A-B): without elacridar; for MDCK-MDR1 Papp(B-A): basolateral to apical; for Papp(B-A)/Papp(A-B) efflux ratio: MDCK-MDR1, @ 5 μM. The data set is classed as in vitro ADME.
Protocol: as §1, §2, §3, §4, §5

In brackets after ≈: the same amount, converted by molar mass.

Broadly, the IC50 is the concentration at which inhibition is half-maximal. One may read the solubility as the concentration that dissolves in the medium under given conditions. With `CC(C)(O)CNC(=O)Cc1nc2cnc3[nH]ccc3c2n1[C@H]1CC[C@H](CC#N)CC1` [Ex. 1, 2-(1-((1r,4r)-4-(Cyanomethyl)cyclohexyl)-1,6-dihydroimidazo[4,5-d]pyrrolo[2,3-b]pyridin-2-yl)-N-(2-hydroxy-2-methylpropyl)acetamide], the “Plasma Concentration After i.c. Dosing, Mean” value in data set [1] (Time = 2 h) and in data set [1] (Time = 4 h) was “^” each time. The “systemic exposure after i.c. dosing” value in data set [1] is on record as “low systemic exposures”. Besides, the results for the IC50 in data set [2] and in data set [3] were 83.9 nM and 59.5 nM, respectively. In data set [4], the solubility was 387 µM (≈ 158 µg/mL). In addition, the Papp A→B at 60 min, 5 μM in data set [5] turned out to be 1.1 ×10⁻⁶ cm/s. Besides, the “MDCK-MDR1 Papp(A-B)” value in data set [6] (@ 5 μM, apical to basolateral) is 0.4 10^−6 cm/sec. The “MDCK-MDR1 Papp(B-A)” value in data set [6] (@ 5 μM) is reported as 1.1 10^−6 cm/sec. Moreover, the “Papp(B-A)/Papp(A-B) efflux ratio” value in data set [6] is 3.3.

`N#CC[C@H]1CC[C@H](n2c(-c3c[nH]cn3)nc3cnc4[nH]ccc4c32)CC1` [Ex. 2, 2-((1r,4r)-4-(2-(1H-Imidazol-4-yl)imidazo[4,5-d]pyrrolo[2,3-b]pyridin-1(6H)-yl)cyclohexyl)acetonitrile]: the values for the IC50 in data set [2] and in data set [3] were 61 nM and 20.8 nM, respectively. The Papp A→B at 60 min, 5 μM in data set [5] was found to be 1.6 ×10⁻⁶ cm/s.

Take `N#CC[C@H]1CC[C@H](n2c(CC(=O)NCC3CC3)nc3cnc4[nH]ccc4c32)CC1` [Ex. 3, 2-(1-((1r,4r)-4-(Cyanomethyl)cyclohexyl)-1,6-dihydroimidazo[4,5-d]pyrrolo[2,3-b]pyridin-2-yl)-N-(cyclopropylmethyl)acetamide]: the “Plasma Concentration After i.c. Dosing, Mean” value in data set [1] (Time = 2 h) and in data set [1] (Time = 4 h) was “^” each time. Also, the “systemic exposure after i.c. dosing” value in data set [1] is “low systemic exposures”. The concentration for half-maximal inhibition (IC50) in data set [2] came out at 21.9 nM; in data set [3] it was 10.1 nM. Besides, in data set [5], the Papp A→B at 60 min, 5 μM worked out at 2.3 ×10⁻⁶ cm/s. Further, in data set [6] (@ 5 μM, apical to basolateral), the “MDCK-MDR1 Papp(A-B)” value was < 0.5 10^−6 cm/sec. In addition, in data set [6] (@ 5 μM), the “MDCK-MDR1 Papp(B-A)” value was 16 10^−6 cm/sec. In addition, the “Papp(B-A)/Papp(A-B) efflux ratio” value in data set [6] was greater than 33.

`N#CCCNC(=O)Cc1nc2cnc3[nH]ccc3c2n1[C@H]1CC[C@H](CC#N)CC1` [Ex. 4, N-(2-Cyanoethyl)-2-(1-((1r,4r)-4-(cyanomethyl)cyclohexyl)-1,6-dihydroimidazo[4,5-d]pyrrolo[2,3-b]pyridin-2-yl)acetamide]: the “Plasma Concentration After i.c. Dosing, Mean” value in data set [1] (Time = 4 h) is “^”. Moreover, in data set [1], the “systemic exposure after i.c. dosing” value is “low systemic exposures”. Also, the IC50 is 119 nM in data set [2] and 64.7 nM in data set [3]. Moreover, in data set [5], the Papp A→B at 60 min, 5 μM is 0.5 ×10⁻⁶ cm/s.

Regarding `N#CC[C@H]1CC[C@H](n2c(CC(=O)NC3CCOCC3)nc3cnc4[nH]ccc4c32)CC1` [Ex. 5, 2-(1-((1r,4r)-4-(Cyanomethyl)cyclohexyl)-1,6-dihydroimidazo[4,5-d]pyrrolo[2,3-b]pyridin-2-yl)-N-(tetrahydro-2H-pyran-4-yl)acetamide], the IC50 in data set [2] was 28.9 nM; in data set [3], 38.1 nM. In data set [4], this compound came in with a solubility of 198 µM (≈ 83.3 µg/mL). Further, in data set [5], the Papp A→B at 60 min, 5 μM was found to be 0.7 ×10⁻⁶ cm/s. In addition, the “MDCK-MDR1 P^eapp(A-B)” value in data set [6] (@ 5 μM, apical to basolateral, with P-gp inhibitor elacridar (2 μM)) is given as 0.5 10^−6 cm/sec. The “MDCK-MDR1 Papp(A-B)” value in data set [6] (@ 5 μM, apical to basolateral) is recorded as < 0.5 10^−6 cm/sec. Also, the “MDCK-MDR1 Papp(B-A)” value in data set [6] (@ 5 μM) is reported as 2.1 10^−6 cm/sec. The “Papp(B-A)/Papp(A-B) efflux ratio” value in data set [6] is reported as greater than 4.5.

For the compound `N#CC[C@H]1CC[C@H](n2c(CC(=O)NCC3CCOCC3)nc3cnc4[nH]ccc4c32)CC1` [Ex. 6, 2-(1-((1r,4r)-4-(Cyanomethyl)cyclohexyl)-1,6-dihydroimidazo[4,5-d]pyrrolo[2,3-b]pyridin-2-yl)-N-((tetrahydro-2H-pyran-4-yl)methyl)acetamide], the half-inhibitory concentration (IC50) in data set [2] worked out at 25.1 nM; in data set [3] it was 39.4 nM. The Papp A→B at 60 min, 5 μM in data set [5] stood at 0.9 ×10⁻⁶ cm/s. Further, the “MDCK-MDR1 Papp(B-A)” value in data set [6] (@ 5 μM) is given as 2.6 10^−6 cm/sec. The “Papp(B-A)/Papp(A-B) efflux ratio” value in data set [6] is greater than 8.7.

With `CC(C)(C#N)CNC(=O)Cc1nc2cnc3[nH]ccc3c2n1[C@H]1CC[C@H](CC#N)CC1` [Ex. 7, N-(2-Cyano-2-methylpropyl)-2-(1-((1r,4r)-4-(cyanomethyl)cyclohexyl)-1,6-dihydroimidazo[4,5-d]pyrrolo[2,3-b]pyridin-2-yl)acetamide], the IC50 is 67.3 nM in data set [2] and 38.5 nM in data set [3]. In data set [4], this compound displayed a solubility of 81 µM (≈ 33.8 µg/mL). In addition, the Papp A→B at 60 min, 5 μM in data set [5] stood at 1.2 ×10⁻⁶ cm/s.

On to `N#CC[C@H]1CC[C@H](n2c(CC(=O)NCC3(O)CCC3)nc3cnc4[nH]ccc4c32)CC1` [Ex. 8, 2-(1-((1r,4r)-4-(Cyanomethyl)cyclohexyl)-1,6-dihydroimidazo[4,5-d]pyrrolo[2,3-b]pyridin-2-yl)-N-((1-hydroxycyclobutyl)methyl)acetamide], for which the results for the concentration for half-maximal inhibition (IC50) in data set [2] and in data set [3] were 33.8 nM and 42.8 nM, respectively. In addition, the Papp A→B at 60 min, 5 μM in data set [5] is 0.5 ×10⁻⁶ cm/s.

In the case of `N#CCC12CCC(NC(=O)Cc3nc4cnc5[nH]ccc5c4n3[C@H]3CC[C@H](CC#N)CC3)(CC1)C2` [Ex. 10, N-(4-(Cyanomethyl)bicyclo[2.2.1]heptan-1-yl)-2-(1-((1r, 4r)-4-(cyanomethyl)cyclohexyl)-1,6-dihydroimidazo[4,5-d]pyrrolo[2,3-b]pyridin-2-yl)acetamide], the IC50 amounted to 44.6 nM in data set [2] and 40.4 nM in data set [3]. The compound also came in with a solubility in data set [4] of 359 µM (≈ 169 µg/mL). Moreover, the Papp A→B at 60 min, 5 μM in data set [5] is 1.1 ×10⁻⁶ cm/s.

For the compound `N#CC[C@H]1CC[C@H](n2c(CC(=O)NCC3(O)CC3)nc3cnc4[nH]ccc4c32)CC1` [Ex. 12, 2-(1-((1r,4r)-4-(Cyanomethyl)cyclohexyl)-1,6-dihydroimidazo[4,5-d]pyrrolo[2,3-b]pyridin-2-yl)-N-((1-hydroxycyclopropyl)methyl)acetamide], the figures for the IC50 in data set [2] and in data set [3] were 75.4 nM and 81.4 nM, respectively. Also, the Papp A→B at 60 min, 5 μM in data set [5] was 0.6 ×10⁻⁶ cm/s.
